The record followed here is patent publication US10188601B2, “Continuous long-term controlled release of telomerase inhibitors” (priority 2013, dated 2019).

Data set [1] deals with telomerase. Particulars: L428 cells, 24 h incubation, graded concentrations; Pd tag versus H2 tag. As for the experimental part: L428 cells were incubated for 24 h with graded concentrations of PdTMPyP4 or H2TMPyP4 dissolved in RPMI 1640 complete medium. The activation or inhibition of telomerase was measured using the Telomeric Repeat Amplification Protocol (TRAP) assay. The procedure is detailed in Tichon A, et al, Cytotherapy. 2009; 11:837-48.

The conditions of data set [2]: single rod per tumor. The source says: One PdTMPyP4 rod, prepared according to the Example 1, was implanted into the KHJJ tumor of each of 4 mice as described in the Example 7 above.
Blood was withdrawn from the junction of the submandibular/facial vein, centrifuged, and the clear supernatant removed, diluted 1:100 and measured in double-distilled water (DDW) as described in the Example 10 below.

The nature of data set [3]: In vitro release of PdTMPyP4 from PLGA rods over time in normal saline. It is filed as physicochemical.
Procedure: Eight rods, two each of matching weights, were placed in individual Eppendorf tubes with 1 ml of normal saline and incubated at 37° C. For measuring PdTMPyP4 release via absorbance, a 10 μl sample were removed and diluted 1:100 with DDW, and absorbance of the resulting solution measured in the spectrophotometer at 415 nm for the first 28 days. […] The removal of a 10 μl sample from the fresh saline solution required a 1:10 dilution in DDW for appropriate reading. […] To compare the release of PdTMPyP4 after the various dilutions, the concentrations were normalized to the dilution factor used during the first 28 days (1:100).
Data set [4] relates to cellular DNA. As for the experimental part: PdTMPyP4 was dissolved directly into medium as described above. After incubation with graded concentrations of PdTMPyp4 added to the medium for 24 or 48 h, the DNA was extracted and digested. […] Details of the methods used to extract the DNA fraction and prepare the samples for ICP-MS are given in Laster B H, et al. Brachytherapy. 2009; 8:324-30.

Data set [5] has as its system L428 Hodgkin's lymphoma cells.
Source text: In these experiments, PdTMPyP4/PLGA rods, manufactured as described in the Example 1, were used to release and maintain the continuous exposure of exponentially-growing L428 Hodgkin's Lymphoma cells to PdTMPyP4 throughout the 8 day experiment. To maintain and encourage exponential growth, cells were split before they neared their maximum density 1.5×10^6 cells/ml. Precautions were taken, in advance, to prevent the dilution of the drug during cell splitting by placing the rods into the medium that would be used when splits were required. Cells were initially seeded into each of 3 different treatment flasks at a cell density of 3.0×10^5 cells/ml in a volume of 25 ml. The cultures were split at 120 and 192 hours. The flasks consisted of:
Fourteen ‘medium-transfer’ flasks were prepared in advance for use during the splitting of the flasks. Twelve (6 each) of these contained 25 ml of complete medium and either 2 PdTMPyP4/PLGA rods or 2 blank PLGA rods.
Two additional flasks contained 25 ml conditioned medium were prepared in advance, by removing from previously grown cells and sterilizing, and whereto either PdTMPyP4/PLGA or 2 PLGA rods were added. This approach permitted the same exponential growth conditions for all treatments even when the flasks were split.
When cells in either flask A, B, or C neared their maximum cell density and required splitting, all flasks were split at this same time and medium from the transfer flasks was added to both the original and new flasks to restore the volume to 25 ml. A 3-ml aliquot of cells was removed from the flasks containing the suspension cells and was counted on a daily basis using a hemocytometer and trypan blue exclusion. The volume removed was replaced with the pretreated medium. […] Cells in each of the split dishes were counted, and counts from all flasks were combined to yield the total number of cells. By combining the cell counts from the split flasks, and using the total cell number, technical errors in counting the cells from the different flasks were reduced.

Molecules are shown by their SMILES.

Regarding `C[n+]1ccc(-c2c3nc(c(-c4cc[n+](C)cc4)c4ccc([n-]4)c(-c4cc[n+](C)cc4)c4nc(c(-c5cc[n+](C)cc5)c5ccc2[n-]5)C=C4)C=C3)cc1.[Pd+2]` [PdTMPyP4, Palladium-tagged tetra (4-N-methylpyridyl) porphyrin], the telomerase activity inhibition result in data set [1] is “superior inhibition”. Further, in data set [2], the “plasma levels by the second and third week” value is reported as “restoration of plasma levels to that on day 0”. The “PdTMPyP4 concentration in blood plasma” value in data set [2] (four mice, weekly measurements) is “negligible concentrations”. Also, the “duration of gradual and continuous release” value in data set [3] is listed as greater than 30 days. Besides, the “effect of Pd tag on DNA uptake of the porphyrin” value in data set [4] (compared with naive TMPyP4) is “does not alter DNA uptake”. The “uptake in DNA converted to moles” value in data set [4] (incubation 24 or 48 h with graded concentrations) is “about 1.7×10^−14 mol”. In data set [4] (incubation 24 or 48 h with graded concentrations, ICP-MS), the “measured uptake of Pd atoms in the DNA of the cell” value was “about 10^9 Pd atoms”. Also, the “time of sudden decrease in cells exposed” value in data set [5] (19-day experiment, continuous release from PLGA rods) is listed as “about 200 h”. Besides, in data set [5] (19-day experiment, from about 200 h through remaining 11 days), the “factor by which cell number was lower than with the other treatments” value is listed as 5-6 times. In addition, the “cell number compared to the other treatments at end of experiment” value in data set [5] (8 day experiment, 264 h, versus untreated and blank PLGA) was “lower”. For the same compound, the “time to L428 cell lethality after telomerase inhibition” value in data set [5] (continuous exposure via rods) was “about 8 days”.
